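Method: 48-hour compound exposure of cells in 96-well plates, five concentrations, linear interpolation of endpoints. Abbreviation: GI50, concentration required for 50% inhibition of growth. TGI: concentration producing complete growth inhibition.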
What was measured:
Test in all cases: NCI tumour cell line growth inhibition, 48 h
HOP-18 NSCLC = system: HOP-18 NSCLC
KM20L2 colon = system: KM20L2 colon
LXFL 529 NSCLC = system: LXFL 529 NSCLC
SNB-78 CNS = system: SNB-78 CNS
DMS 114 small cell lung = system: DMS 114 small cell lung
M19-MEL melanoma = system: M19-MEL melanoma
MDA-N = system: MDA-N
XF 498 CNS = system: XF 498 CNS
RXF-631 renal = system: RXF-631 renal

Compound | TGI (HOP-18 NSCLC) [µM] | TGI (KM20L2 colon) [µM] | TGI (LXFL 529 NSCLC) [µM] | TGI (SNB-78 CNS) [µM] | TGI (DMS 114 small cell lung) [µM] | TGI (M19-MEL melanoma) [µM] | TGI (MDA-N) [µM] | TGI (XF 498 CNS) [µM] | TGI (RXF-631 renal) [µM] | GI50 (MDA-N) [µM] | GI50 (KM20L2 colon) [µM] | GI50 (LXFL 529 NSCLC) [µM] | GI50 (SNB-78 CNS) [µM] | GI50 (M19-MEL melanoma) [µM]
C[Si](C)(C)OC1(C#N)C2C3CC4C2C(=O)C2C4C3C21 (configuration not stated) | > 100 | > 100 | > 100 | > 100 | > 100 | > 100 |  |  |  |  |  |  |  | 
CCCCCCCCCCCCCCCCCC(=O)OCC(COC1OC(COP(=O)(O)O)C(O)C(O)C1O)OC(=O)CCCCCCCCCCCCCCCCC (configuration not stated) |  |  |  |  |  |  | 20.1 |  |  |  |  |  |  | 
CC(=O)NC1=C(OS(=O)(=O)c2ccc(C)cc2)CN(C)C1=O |  |  |  |  |  |  | 24.5 |  |  |  |  |  |  | 
CCC1CN2CCc3cc(OC)c(OC)cc3C2CC1CC1c2cc(OC)c(OC)cc2CCN1C(=O)C1CCCN1C(=O)OCc1ccccc1 (configuration not stated) | 53.7 | 31.4 | 29.9 | 31.2 | 26.9 | 28.8 |  | 30.4 | 33.9 |  |  |  |  | 
CNC(=O)OCc1c(COC(=O)NC)c(C)n(-c2ccc(Br)cc2)c1C |  |  |  |  |  |  | 32 |  |  |  |  |  |  | 
N#CC(C(=O)CCC(=O)Nc1cccc(Cl)c1)c1ccccc1 (configuration not stated) | > 100 | > 100 | > 100 | > 100 | > 100 | > 100 |  |  | > 100 |  |  |  |  | 
COc1cccc(C=Nc2cc(C)ccn2)c1O.COc1cccc(C=Nc2cc(C)ccn2)c1O.[Cu] |  |  |  |  |  |  | 41.3 |  |  | 16.3 |  |  |  | 
CC(=O)OC1CCn2nnc(CO[Si](C)(C)C(C)(C)C)c21 (configuration not stated) | > 100 | > 100 | > 100 |  | > 100 |  |  | > 100 |  |  |  |  |  | 
Cc1cc2c(C)n(Cc3ccc(Cl)cc3Cl)nc2c(C#N)c1C | > 91.6 | > 56.9 | > 100 | > 76.4 | > 100 | > 100 |  | 23 |  |  |  |  |  | 
CCOC(=O)C(=O)Nc1c(CC)cccc1C(C)C |  | > 100 | > 100 | > 100 |  | > 100 |  | > 100 |  |  |  |  |  | 
CCOC(=O)C(C)(c1cn(C)c2ccccc12)c1cn(C)c2ccccc12 |  | > 100 | > 100 | > 100 | > 100 | > 100 |  | > 100 | > 100 |  |  |  |  | 
CCOC(=O)C1Oc2ccc([N+](=O)[O-])c3c2C1(O)CCC3 (configuration not stated) |  |  | > 100 | > 100 | > 100 | > 100 |  |  | > 100 |  |  |  |  | 
O=C(O)C1(P(=O)(O)O)CC1 | > 100 | > 100 | > 100 | > 100 | > 100 | > 100 |  | > 100 |  |  |  |  |  | 
O=C1C(=O)N(c2ccc(Cl)c(Cl)c2)C(=O)C(=O)C1c1nc2ccccc2s1 | > 100 | > 100 | > 100 | > 100 | > 100 | > 100 |  |  |  |  |  |  |  | 
O=C(N/N=C/c1ccc2c(c1)CCC2)c1ccccc1O |  |  |  |  |  |  | 64.8 |  |  |  |  |  |  | 
COC1CC(OS(=O)(=O)c2ccc(C)cc2)C(OC(=O)c2ccccc2)C(C)O1 (configuration not stated) | > 10 | > 100 | > 100 | > 100 | > 100 | > 100 |  | > 100 |  |  | > 100 | > 100 | > 100 | > 100
O=S(=O)(c1ccccc1)C(CN1CCCCC1)S(=O)(=O)c1ccccc1 |  | > 100 | > 100 |  |  | > 100 |  | > 100 |  |  |  |  |  | 
CN(C)c1nc(=Nc2ccc3ccccc3c2)ss1 | > 100 | > 100 | > 100 | > 100 | 41.3 |  |  |  |  |  |  |  |  | 

Compound | TGI (HOP-18 NSCLC) [µM] | TGI (KM20L2 colon) [µM] | TGI (LXFL 529 NSCLC) [µM] | TGI (SNB-78 CNS) [µM] | TGI (DMS 114 small cell lung) [µM] | TGI (M19-MEL melanoma) [µM] | TGI (MDA-N) [µM] | TGI (XF 498 CNS) [µM] | TGI (RXF-631 renal) [µM] | GI50 (MDA-N) [µM] | GI50 (KM20L2 colon) [µM] | GI50 (LXFL 529 NSCLC) [µM] | GI50 (SNB-78 CNS) [µM] | GI50 (M19-MEL melanoma) [µM]
c1ccc(SC(CCCCC(Sc2ccccc2)Sc2ccccc2)Sc2ccccc2)cc1 |  | > 100 | > 100 | > 100 | > 100 | > 100 |  | > 100 | > 100 |  |  |  |  | 
COc1ccc(OC)c(NC(=O)CCC/C(CC(=O)c2ccc(O)c(OC)c2)=N\NC(=O)C[N+](C)(C)C)c1 | > 100 | > 100 | > 100 |  | > 100 | > 100 |  | > 100 | > 100 |  |  |  |  | 
CCCCNCC(=O)O[C@]1(CC)C(=O)OCc2c1cc1n(c2=O)Cc2cc3ccccc3nc2-1 | 48.9 | > 100 | 56.8 | > 100 | 4.69 | 6.21 | 23.1 | 2.92 | 6.9 |  |  |  |  | 
COc1cc(C(=O)C/C(CCC(=O)Nc2ccccc2[N+](=O)[O-])=N\NC(=O)CC#N)ccc1O | > 100 | > 100 | > 100 |  |  | > 100 |  | > 100 | > 100 |  |  |  |  | 
COc1ccc(C2=C(Cl)c3cc(OC)c(OC)cc3C2Cl)cc1OC (configuration not stated) | 55.6 | 29.5 |  | 75.5 |  | 31.7 |  | 29.4 | 44.4 |  |  |  |  | 
CCOC(=O)c1oc2ccc(OC)c3c2c1CCC3 |  |  | > 100 | > 100 | > 100 | > 100 |  | > 100 |  |  |  |  |  | 
O=C1C=C(Br)c2c(-c3ccccc3)oc3cccc1c23 | > 100 | > 100 | > 100 | > 100 | > 100 | > 100 | 66 |  | > 100 |  |  |  |  | 
C=C1COC(/C=C(\C)CC/C=C(\C)CCl)C1 (configuration not stated) |  | > 100 | > 100 | > 100 | > 100 | > 100 |  | > 100 |  |  |  |  |  | 
Brc1cccc(C2SCc3nc4ccccc4n32)c1 (configuration not stated) |  |  | > 100 | 99.2 | 35.2 | 49.1 |  |  |  |  |  |  |  | 
O=C1OC(CCCl)(c2ccccc2)CC1CN1CCOCC1 (configuration not stated) |  | > 100 | 33.7 | 81.5 | 42.9 | 45.6 |  | 29.3 |  |  |  |  |  | 
COc1ccc(C(OCC2OC(n3ccc(NC(=O)c4ccccc4)nc3=O)C(O)C2O)(c2ccccc2)c2ccccc2)cc1 (configuration not stated) |  |  |  |  |  |  | 3.79 |  |  |  |  |  |  | 
Cc1c(C#N)c(=O)[nH]c(=O)n1CCN1CCN(C(=O)NCCCCCCNC(=O)N2CCN(CCn3c(C)c(C#N)c(=O)[nH]c3=O)CC2)CC1 | > 100 | > 100 | > 100 | > 100 | > 100 | > 100 |  | > 100 |  |  |  |  |  | 
CCCCCCc1cc(C(=O)Nc2cccc(C(F)(F)F)c2)nc(N)n1 | > 100 | > 100 | > 100 | > 100 | > 100 | > 100 |  |  | > 100 |  |  |  |  | 
CS(=O)(=O)Oc1cccc(/C=N/N=C(\N)NO)c1 | > 100 |  | > 100 | > 100 | > 100 | > 100 |  | 32.5 |  |  |  |  |  | 
Nn1c(-c2ccccc2Cl)nc2ccccc2c1=O | > 100 | > 100 | > 100 | > 100 | > 100 | > 100 |  | > 100 | > 100 |  |  |  |  | 
COc1cc2c(cc1OC(=O)CC(C)O)C1C(OC2=O)C(OC(C)=O)C=C2CCN(C)[C@H]21 (some centres not stated) | 69.4 | > 100 | > 100 | 68.8 |  | > 100 |  | 38.6 | 93.9 |  |  |  |  | 
O=C(O)C/C=C/CC(=O)O |  |  |  |  |  |  | > 100 |  |  |  |  |  |  | 
CCCCCCCCCCCC(=O)OCCOCCOCCOCCOCCOCc1ccc(OC)cc1 | > 100 | > 100 | > 100 | > 100 | > 100 | > 100 |  |  | > 100 |  |  |  |  | 

Reference: PubChem BioAssay (NCI)
